Assays:
Format in all cases: in vivo, mice (male, Charles River, CD-1)
[1] = system: mice; assay: Metrazol lethality assay (MTZ), anticonvulsant activity; settings: Mus musculus, po
Protocol: (§1) The compounds of this invention are also useful as anticonvulsants due to their anticonvulsant activity in mammals. Anticonvulsant activity is measured in male mice using the supramaximal electroshock (SES) assay described in Arch. Int. Pharmacodyn. 92, pp. 97-107, (1952) and the metrazol lethality assay (MTZ) described in J. Pharmacol. Exp. Ther., 81, 402 (1944).
Groups of male mice (Charles River, CD-1), weighing 18 to 30 grams are employed in the Metrazol lethality assay. Test compounds are dissolved in distilled water or if insoluble, suspended in water, to which a surfactant, such as Tween-80 is added. The test compounds are administered orally, the administered dose being dissolved or suspended in 10 ml of solution or suspension per kg of animal body weight. Control animals (2 mice/group) receive water or water and Tween-80, i.e., the vehicle for administration of the test compound. Metrazol (pentylenetetrazol) is dissolved in water (concentration 225 mg of Metrazol/10 ml of solution), and the solution is administered subcutaneously to groups of five animals each at one or more time intervals of 15, 30, 60, 90, or 120 minutes after administration of the test compound. The number of animal alive 15 minutes after treatment with Metrazol is determined and recorded. The following formula is employed to calculate the percent protection against Metrazol lethality. [formula]
A dose range determination is performed by substantially the same procedure as the time response determination. In the dose range determination, five groups of 10 animals per group are employed. This determination is generally reserved for those compounds which protect against lethality by greater than 70% at the screening dose employed.
(§2) The anticonvulsant activity of several of the compounds of this invention as per the SES and MTZ assay procedures is provided in Table 2.

[2] = system: mice; assay: phenyl-p-quinone (phenyl-p-benzoquinone) writhing assay in mice, analgesia
Protocol: The procedure employed to determine analgetic utility is a modification of the phenyl-p-benzoquinone writhing assay in mice, a standard assay for analgesia [Proc. Soc. Exptl. Bio. […] The solution is administered to the subject mice intraperitoneally at a dose of 10 ml per kg of body weight. A characteristic "writhe" an inward rotation of one or more feet with twisting and turning of the trunk, drawing in of the abdominal wall, lordosis and arching of the back, is produced. A total of 28 male mice (Charles River, CD-1), weighing 18 to 30 grams, are employed for a time response. The subject animals receive food and water ad libitum. Test compounds are dissolved in distilled water, or suspended in distilled water containing one drop of a suitable surfactant, such as Tween-80. […] A control group (2 animals per group) receive an equal volume of the vehicle. After the administration of the phenyl-p-quinone, the mice are place separately in one liter beakers, and after five minutes, are observed for ten minutes. The number of writhes for each animal is recorded. The following formula is used to compute the percent inhibition: [formula] The time period with the greatest percent of inhibition is considered the peak time.

[3] = system: mice; assay: supramaximal electroshock (SES) assay, anticonvulsant activity; settings: Mus musculus, ip
Protocol: as §1
Groups of male mice (Charles River, CD-1) weighing 18 to 30 g are employed in the SES assay. Test compounds are dissolved in distilled water, or if insoluble, suspended in water containing one drop of a surfactant, such as Tween-80. Test compounds are generally administered intraperitoneally at a dose of 10 ml of solution, or suspension, per kg of animal body weight. The output terminals of an A.C. shocker, which delivers 206 volts rms for 300 msec, are placed across the animals' eyes, an electrode paste coating assuring contact of the terminals with the eyes. The test compound is administered and thereafter the subject animals are shocked.
Protection is expressed as normalized percent inhibition relative to vehicle control. [formula] A time response is carried out using 6 animals per group. Animals are tested at 30, 60 and 120 minutes post drug. Additional time periods are tested if indicated by previous tests. A dose range determination is generally reserved for those compounds which inhibit convulsions by greater than about 45-55% at the screening dose employed at the time the test was performed. When the peak activity time has been determined, a dose response is initiated, using 10 animals per group at that time period.
as §2

With `CNC(=O)N1CCC(Oc2c(F)c(F)c(F)c(F)c2F)(c2ccccc2)CC1` [1-(N-Methylamino)carbonyl-4-(2,3,4,5,6-pentafluorophenoxy)-4-phenylpiperidine] as the compound, how does the ED50 [1] read?
Its ED50 is 64.3 mg/kg.

Which “Analgesic Activity: % Inhibition of writhing at a screening dose of 20 mg/kg, s.c.” value (“Analgesic Activity: % Inhibition” for short) [2] does the source give for `CNC(=O)N1CCC(Oc2ccc([N+](=O)[O-])cc2)(c2ccccc2)CC1` [1-(N-Methylamino)carbonyl-4-(4-nitrophenoxy)-4-phenylpiperidine] here?
Its value is 34%.

What about the ED50 [1] of the same compound?
Its ED50 is 55.2 mg/kg.

With `CNC(=O)N1CCC(Oc2cccc(C(F)(F)F)c2)(c2ccccc2)CC1` [1-(N-Methylamino)carbonyl-4-phenyl-4-(3-trifluoromethylphenoxy)piperidine] as the compound, how does the ED50 [3] read?
The ED50 was 43.5 mg/kg.

With `CNC(=O)N1CCC(Oc2ccc(C(F)(F)F)cc2)(c2ccccc2)CC1` [1-(N-Methylamino)carbonyl-4-phenyl-4-(4-trifluoromethylphenoxy)piperidine] as the compound, how does the ED50 [1] read?
The ED50 was 41.2 mg/kg.

What does the source list for `CC(=O)N1CCC(Oc2c(F)c(F)c(F)c(F)c2F)(c2ccccc2)CC1` [1-Acetyl-4-(2,3,4,5,6-pentafluorophenoxy)-4-phenylpiperidine]?
Analgesic Activity: % Inhibition of writhing at a screening dose of 20 mg/kg, s.c. [2]: 38%; ED50 [1]: 60.5 mg/kg

For `CC(=O)N1CCC(Oc2cccc(Cl)c2)(c2ccccc2)CC1` [1-Acetyl-4-(3-chlorophenoxy)-4-phenylpiperidine], which “Analgesic Activity: % Inhibition” value [2] is on record?
Its value is 33%.

What about the ED50 [3] of the same compound?
Its ED50 is 55.4 mg/kg.

With `CC(=O)N1CCC(Oc2cccc(C(F)(F)F)c2)(c2ccccc2)CC1` [1-Acetyl-4-phenyl-4-(3-trifluoromethylphenoxy)piperidine] as the compound, how does the “Analgesic Activity: % Inhibition” value [2] read?
The value was 48%.

Which results are given for `CC(=O)N1CCC(Oc2ccc(C(F)(F)F)cc2)(c2ccccc2)CC1` [1-Acetyl-4-phenyl-4-(4-trifluoromethylphenoxy)piperidine]?
Analgesic Activity: % Inhibition of writhing at a screening dose of 20 mg/kg, s.c. [2]: 32%; ED50 [1]: 44.8 mg/kg; ED50 [3]: 32.1 mg/kg

Which “Analgesic Activity: % Inhibition” value [2] does the source give for `NC(=O)N1CCC(Oc2ccc([N+](=O)[O-])cc2)(c2ccccc2)CC1` [1-Aminocarbonyl-4-(4-nitrophenoxy)-4-phenylpiperidine] here?
The value was 42%.

`O=C(Cn1ccnc1)N1CCC(Oc2c(F)c(F)c(F)c(F)c2F)(c2ccccc2)CC1` [1-[2-(Imidazol-1-yl)acetyl]-4-(2,3,4,5,6-pentafluorophenoxy)-4-phenylpiperidine] was tested. Which ED50 [1] did it give?
The ED50 was 38 mg/kg.

With `CC(=O)Oc1ccccc1C(=O)O` [asprin, reference compound] as the compound, how does the “Analgesic Activity: % Inhibition” value [2] read?
The value was 33%.

`CCC1(c2ccccc2)C(=O)NC(=O)NC1=O` [phenobarbital, reference compound] was tested. Which ED50 [3] did it give?
Its ED50 is 8.4 mg/kg.
